Test results: patent US20240360082A1, “SUBSTITUTED PYRIDONE COMPOUNDS USEFUL TO TREAT ORTH[…]” (priority 2021, published 2024)

Target: influenza A virus minigenome (PB2, PB1, PA, NP proteins) (UniProt P04665)
Format: cell-based
Details: read-out: RNP_Hubei B

Chain of influenza A virus minigenome (PB2, PB1, PA, NP proteins) (P04665 whole entry): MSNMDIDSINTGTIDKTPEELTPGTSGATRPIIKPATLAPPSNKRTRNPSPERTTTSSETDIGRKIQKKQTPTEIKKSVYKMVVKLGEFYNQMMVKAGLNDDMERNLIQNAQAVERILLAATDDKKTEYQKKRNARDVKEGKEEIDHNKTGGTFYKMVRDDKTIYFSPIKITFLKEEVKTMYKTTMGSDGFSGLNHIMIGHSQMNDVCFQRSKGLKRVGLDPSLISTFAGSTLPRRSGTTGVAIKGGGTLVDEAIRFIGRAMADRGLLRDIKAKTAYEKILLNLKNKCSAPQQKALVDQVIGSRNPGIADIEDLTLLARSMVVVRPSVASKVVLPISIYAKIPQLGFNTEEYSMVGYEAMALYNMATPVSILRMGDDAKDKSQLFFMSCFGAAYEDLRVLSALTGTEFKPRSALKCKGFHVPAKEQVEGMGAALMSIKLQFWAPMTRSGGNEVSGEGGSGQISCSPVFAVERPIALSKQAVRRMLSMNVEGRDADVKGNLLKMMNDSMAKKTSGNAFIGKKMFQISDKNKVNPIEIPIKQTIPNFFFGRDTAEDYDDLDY

Row | Structure (SMILES) | IC50
1 | CC(c1ccc(-c2cc(C(N)=O)c(=O)[nH]c2C(F)(F)F)cc1)N1CCOCC1 (stereo not drawn) [Example 33, 5-(4-(1-morpholinoethyl)phenyl)-2-oxo-6-(trifluoromethyl)-1,2-dihydropyridine-3-carboxamide] | 1 to 5 µM
2 | NC(=O)c1cc(-c2ccc(CN3CCCOCC3)cc2)c(C(F)(F)F)[nH]c1=O [Example 34, 5-(4-((1,4-oxazepan-4-yl)methyl)phenyl)-2-oxo-6-(trifluoromethyl)-1,2-dihydropyridine-3-carboxamide] | 25 to 50 µM
3 | C[C@@H]1CN(Cc2ccc(-c3cc(C(N)=O)c(=O)[nH]c3C(F)(F)F)cc2)C[C@H](C)O1 [Example 35, 5-(4-(((2S,6R)-2,6-dimethylmorpholino)methyl)phenyl)-2-oxo-6-(trifluoromethyl)-1,2-dihydropyridine-3-carboxamide] | 25 to 50 µM
4 | NC(=O)c1cc(-c2ccc(CN3CCOCC3)c(F)c2)c(C(F)(F)F)[nH]c1=O [Example 36, 5-(3-fluoro-4-(morpholinomethyl)phenyl)-2-oxo-6-(trifluoromethyl)-1,2-dihydropyridine-3-carboxamide] | 10 to 25 µM
5 | CC(O)c1ccc(-c2cc(C(N)=O)c(=O)[nH]c2C(F)(F)F)cc1 (stereo not drawn) [Example 37, 5-(4-(1-hydroxyethyl)phenyl)-2-oxo-6-(trifluoromethyl)-1,2-dihydropyridine-3-carboxamide] | 25 to 50 µM
6 | COC1CN(Cc2ccc(-c3cc(C(N)=O)c(=O)[nH]c3C(F)(F)F)cc2)C1 [Example 38, 5-(4-((3-methoxyazetidin-1-yl)methyl)phenyl)-2-oxo-6-(trifluoromethyl)-1,2-dihydropyridine-3-carboxamide] | 25 to 50 µM
7 | CC1(C)CN(Cc2ccc(-c3cc(C(N)=O)c(=O)[nH]c3C(F)(F)F)cc2)CCO1 [Example 39, 5-(4-((2,2-dimethylmorpholino)methyl)phenyl)-2-oxo-6-(trifluoromethyl)-1,2-dihydropyridine-3-carboxamide] | 10 to 25 µM
8 | CO[C@H]1CCN(Cc2ccc(-c3cc(C(N)=O)c(=O)[nH]c3C(F)(F)F)cc2)C1 [Example 40, (S)-5-(4-((3-methoxypyrrolidin-1-yl)methyl)phenyl)-2-oxo-6-(trifluoromethyl)-1,2-dihydropyridine-3-carboxamide] | 25 to 50 µM
9 | CO[C@@H]1CCN(Cc2ccc(-c3cc(C(N)=O)c(=O)[nH]c3C(F)(F)F)cc2)C1 [Example 41, (R)-5-(4-((3-methoxypyrrolidin-1-yl)methyl)phenyl)-2-oxo-6-(trifluoromethyl)-1,2-dihydropyridine-3-carboxamide] | 25 to 50 µM
10 | NC(=O)c1cc(-c2ccc(CN3CCOCC3)cc2F)c(C(F)(F)F)[nH]c1=O [Example 42, 5-(2-fluoro-4-(morpholinomethyl)phenyl)-2-oxo-6-(trifluoromethyl)-1,2-dihydropyridine-3-carboxamide] | 10 to 25 µM
11 | Cc1cc(-c2cc(C(N)=O)c(=O)[nH]c2C(F)(F)F)ccc1CN1CCOCC1 [Example 43, 5-(3-methyl-4-(morpholinomethyl)phenyl)-2-oxo-6-(trifluoromethyl)-1,2-dihydropyridine-3-carboxamide] | 1 to 5 µM
12 | NC(=O)c1cc(-c2ccc(CN3CCCCC3)cc2)c(C(F)(F)F)[nH]c1=O [Example 44, 2-oxo-5-(4-(piperidin-1-ylmethyl)phenyl)-6-(trifluoromethyl)-1,2-dihydropyridine-3-carboxamide] | 25 to 50 µM
13 | CN(C)Cc1ccc(-c2cc(C(N)=O)c(=O)[nH]c2C(F)(F)F)cc1 [Example 45, 5-(4-((dimethylamino)methyl)phenyl)-2-oxo-6-(trifluoromethyl)-1,2-dihydropyridine-3-carboxamide] | 25 to 50 µM
14 | NC(=O)c1cc(-c2ccc(CN3CCOCC3=O)cc2)c(C(F)(F)F)[nH]c1=O [Example 46, 2-oxo-5-(4-((3-oxomorpholino)methyl)phenyl)-6-(trifluoromethyl)-1,2-dihydropyridine-3-carboxamide] | 25 to 50 µM
15 | NC(=O)c1cc(-c2ccc(CN3CCS(=O)(=O)CC3)cc2)c(C(F)(F)F)[nH]c1=O [Example 47, 5-(4-((1,1-dioxidothiomorpholino)methyl)phenyl)-2-oxo-6-(trifluoromethyl)-1,2-dihydropyridine-3-carboxamide] | 25 to 50 µM
16 | NC(=O)c1cc(-c2ccc(C(c3cnco3)N3CCOCC3)cc2)c(C(F)(F)F)[nH]c1=O (stereo not drawn) [Example 48, 5-(4-(morpholino(oxazol-5-yl)methyl)phenyl)-2-oxo-6-(trifluoromethyl)-1,2-dihydropyridine-3-carboxamide] | 25 to 50 µM
17 | CS(=O)(=O)NCc1ccc(-c2cc(C(N)=O)c(=O)[nH]c2C(F)(F)F)cc1 [Example 49, 5-(4-(methylsulfonamidomethyl)phenyl)-2-oxo-6-(trifluoromethyl)-1,2-dihydropyridine-3-carboxamide] | 25 to 50 µM
18 | NC(=O)c1cc(-c2ccc(CC3(O)CCOCC3)cc2)c(C(F)(F)F)[nH]c1=O [Example 50, 5-(4-((4-hydroxytetrahydro-2H-pyran-4-yl)methyl)phenyl)-2-oxo-6-(trifluoromethyl)-1,2-dihydropyridine-3-carboxamide] | 25 to 50 µM

Row | Structure (SMILES) | IC50
19 | NC(=O)c1cc(-c2ccc(CC3(F)CCOCC3)cc2)c(C(F)(F)F)[nH]c1=O [Example 51, 5-(4-((4-fluorotetrahydro-2H-pyran-4-yl)methyl)phenyl)-2-oxo-6-(trifluoromethyl)-1,2-dihydropyridine-3-carboxamide] | 5 to 10 µM
20 | NC(=O)c1cc(-c2ccc(OCc3cccc([N+](=O)[O-])c3)cc2)c(C(F)(F)F)[nH]c1=O [Example 54, 5-(4-((3-nitrobenzyl)oxy)phenyl)-2-oxo-6-(trifluoromethyl)-1,2-dihydropyridine-3-carboxamide] | 10 to 25 µM
21 | CC(=O)N1CCC(COc2ccc(-c3cc(C(N)=O)c(=O)[nH]c3C(F)(F)F)cc2)CC1 [Example 55, 5-(4-((1-acetylpiperidin-4-yl)methoxy)phenyl)-2-oxo-6-(trifluoromethyl)-1,2-dihydropyridine-3-carboxamide] | 25 to 50 µM
22 | NC(=O)c1cc(-c2ccc(OCC3CCOCC3)cc2)c(C(F)(F)F)[nH]c1=O [Example 56, 2-oxo-5-(4-((tetrahydro-2H-pyran-4-yl)methoxy)phenyl)-6-(trifluoromethyl)-1,2-dihydropyridine-3-carboxamide] | 25 to 50 µM
23 | NC(=O)c1cc(-c2ccc(OCc3cccc(N)c3)cc2)c(C(F)(F)F)[nH]c1=O [Example 57, 5-(4-((3-aminobenzyl)oxy)phenyl)-2-oxo-6-(trifluoromethyl)-1,2-dihydropyridine-3-carboxamide] | 5 to 10 µM
24 | NC(=O)c1cc(-c2ccc(OCC3CCCCC3)cc2)c(C(F)(F)F)[nH]c1=O [Example 58, 5-(4-(cyclohexylmethoxy)phenyl)-2-oxo-6-(trifluoromethyl)-1,2-dihydropyridine-3-carboxamide] | 5 to 10 µM
25 | COc1ccc(COc2ccc(-c3cc(C(N)=O)c(=O)[nH]c3C(F)(F)F)cc2)cc1 [Example 59, 5-(4-((4-methoxybenzyl)oxy)phenyl)-2-oxo-6-(trifluoromethyl)-1,2-dihydropyridine-3-carboxamide] | 5 to 10 µM
26 | CN(C)C(=O)c1ccc(COc2ccc(-c3cc(C(N)=O)c(=O)[nH]c3C(F)(F)F)cc2)cc1 [Example 60, 5-(4-((4-(dimethylcarbamoyl)benzyl)oxy)phenyl)-2-oxo-6-(trifluoromethyl)-1,2-dihydropyridine-3-carboxamide] | 25 to 50 µM
27 | CCCNc1cccc(COc2ccc(-c3cc(C(N)=O)c(=O)[nH]c3C(F)(F)F)cc2)c1 [Example 66, 2-oxo-5-(4-((3-(propylamino)benzyl)oxy)phenyl)-6-(trifluoromethyl)-1,2-dihydropyridine-3-carboxamide] | 0.1 to 1 µM
28 | NC(=O)c1cc(-c2ccc(OCc3ccncc3)cc2)c(C(F)(F)F)[nH]c1=O [Example 70, 2-oxo-5-(4-(pyridin-4-ylmethoxy)phenyl)-6-(trifluoromethyl)-1,2-dihydropyridine-3-carboxamide] | 25 to 50 µM
29 | NC(=O)c1cc(-c2ccc(OCc3ccc4nonc4c3)cc2)c(C(F)(F)F)[nH]c1=O [Example 71, 5-(4-(benzo[c][1,2,5]oxadiazol-5-ylmethoxy)phenyl)-2-oxo-6-(trifluoromethyl)-1,2-dihydropyridine-3-carboxamide] | 25 to 50 µM
30 | NC(=O)c1cc(-c2ccc(OCc3cccnc3)cc2)c(C(F)(F)F)[nH]c1=O [Example 72, 2-oxo-5-(4-(pyridin-3-ylmethoxy)phenyl)-6-(trifluoromethyl)-1,2-dihydropyridine-3-carboxamide] | 25 to 50 µM
31 | NC(=O)c1cc(-c2ccc(OCc3ccccn3)cc2)c(C(F)(F)F)[nH]c1=O [Example 73, 2-oxo-5-(4-(pyridin-2-ylmethoxy)phenyl)-6-(trifluoromethyl)-1,2-dihydropyridine-3-carboxamide] | 25 to 50 µM
32 | NC(=O)c1cc(-c2ccc(OCc3cccc4nonc34)cc2)c(C(F)(F)F)[nH]c1=O [Example 74, 5-(4-(benzo[c][1,2,5]oxadiazol-4-ylmethoxy)phenyl)-2-oxo-6-(trifluoromethyl)-1,2-dihydropyridine-3-carboxamide] | 10 to 25 µM
33 | CS(=O)(=O)c1cccc(COc2ccc(-c3cc(C(N)=O)c(=O)[nH]c3C(F)(F)F)cc2)c1 [Example 75, 5-(4-((3-(methylsulfonyl)benzyl)oxy)phenyl)-2-oxo-6-(trifluoromethyl)-1,2-dihydropyridine-3-carboxamide] | 25 to 50 µM
34 | NC(=O)c1cc(-c2ccc(OCc3ccccc3[N+](=O)[O-])cc2)c(C(F)(F)F)[nH]c1=O [Example 76, 5-(4-((2-nitrobenzyl)oxy)phenyl)-2-oxo-6-(trifluoromethyl)-1,2-dihydropyridine-3-carboxamide] | 10 to 25 µM
35 | N#Cc1ccc(COc2ccc(-c3cc(C(N)=O)c(=O)[nH]c3C(F)(F)F)cc2)cc1 [Example 77, 5-(4-((4-cyanobenzyl)oxy)phenyl)-2-oxo-6-(trifluoromethyl)-1,2-dihydropyridine-3-carboxamide] | 10 to 25 µM
36 | N#Cc1cccc(COc2ccc(-c3cc(C(N)=O)c(=O)[nH]c3C(F)(F)F)cc2)c1 [Example 78, 5-(4-((3-cyanobenzyl)oxy)phenyl)-2-oxo-6-(trifluoromethyl)-1,2-dihydropyridine-3-carboxamide] | 25 to 50 µM
